Values of other authors in patent publication US8945508B2, “Dendrimer compositions and methods of synthesis” (priority 2009, dated 2015).

Legend:
[1] = more cytotoxic than IRINOTECAN

SMILES | in vivo activity in solid tumor models (solid tumors) | cytotoxicity relative to IRINOTECAN [1]
N.N.[Cl][Pt][Cl] [cisplatin] | no effect | 
CC[C@@]1(O)C(=O)OCc2c1cc1n(c2=O)Cc2cc3cc(O)ccc3nc2-1 [SN-38, 10-hydroxycamptothecin] |  | 1000 fold
